# Measurements as given in patent publication US9457016B2, “Methods for treating polycystic kidney disease” (New York University, priority 2013, dated 2016).
# How the values were obtained:
# [1] = system: PKD1^flox/flox; Tamoxifen-Cre mice; format: in vivo; settings: BPTES 12.5 mg/kg IP BID, postnatal day 15-32, N=4, vs vehicle control
# Protocol: FIG. 12A-C. […] Mice were sacrificed on day 32 and analyzed. (A) Scan of sagittal section of littermates treated with BPTES or vehicle control; (B) Kidney wt/body wt; (C) cystic index.
# Cre recombinase was induced on postnatal day 10 by administering tamoxifen (10 mg/40 g) intraperitoneally (IP) on two consecutive days. […] Only same sexed mice from same litters were compared.
# Early Models. PKD1^flox/flox; Tamoxifen-Cre Mice: The present inventors obtained the tamoxifen-Cre mouse model from G. Germino. For early onset disease, Cre recombinase is induced at day 10 by administering tamoxifen (10 mg/40 g) intraperitoneally (IP) on 2 consecutive days as described in FIG. 12 above and in Piontek et al. (2007, Nature medicine, 13: 1490-1495; the entire content of which is incorporated herein by reference).
# ADPKD cells [2] = assay: Seahorse analysis of ATP production and mitochondrial oxygen consumption; format: cell-based, human
# Protocol: FIG. 13A-B. Seahorse analysis of ADPKD cells. ADPKD cells that were unstimulated or stimulated with forskolin in the presence or absence of BPTES and mitochondrial oxygen consumption was determined by seahorse analysis. (A) Schematic of the method and analysis. Oligomycin inhibits ATP synthase. FCCP is a mitochondrial uncoupler and leads to maximal OCR and rotenone interferes with electron transport. (B) Inhibition of ATP generation was also found by Seahorse analysis. ADPKD cells were unstimulated in the absence (C) or presence of BAPTES (B) or stimulated with forskolin in the absence (F) or presence of BPTES (FB).
# The decreased generation of α-ketoglutarate, which feeds directly into tricarboxylic acid (TCA) would be predicted to lead to decreased TCA intermediates required for mitochondrial respiration and ATP generation. Seahorse analysis (Seahorse Biosciences) was performed on ADPKD cells that were either unstimulated or stimulated with forskolin in the presence or absence of BPTES.
# ADPKD cells [3] = assay: Cyst formation of ADPKD cells plated in collagen, forskolin stimulated; format: cell-based, human
# Protocol: FIG. 1. […] Images are at 10×. BF=bright field.
# FIG. 2. Quantification of cyst size and cyst number in ADPKD cells incubated with or without BPTES. Total number of cysts in FIG. 1 was counted and stratified by cyst size. Asterisks indicate statistically significant findings.
# FIG. 10. siRNA to Gls1 inhibits cyst formation of ADPKD cells. ADPKD cells were transfected with a control or siRNA to Gls1 and cyst formation was assessed. Number of cysts in control (blue), siRNA transfected cells (green), or siRNA transfected cells cultured with dimethyl α-ketoglutarate (red).
# FIG. 10 depicts results from experiments using siRNA to Gls1 to determine the effects of same on cyst formation of ADPKD cells. […] The following are exemplary siRNA sequences used for inhibition of Gls1 […] (SEQ ID NO: 1); SASI_Hs01_00071573-[…][dT][dT] (SEQ ID NO: 2); 2260 NM_014905-[…] (SEQ ID NO: 3); SASI_Hs01_00071574-[…][dT][dT] (SEQ ID NO: 4); 1081 NM_014905-[…] (SEQ ID NO: 5).
# The present inventors have made the surprising discovery that inhibiting glutaminase 1 (gls1) blocks cyst formation and proliferation by ADPKD cells. […] ADPKD cells were plated in collagen and stimulated with the cyclic 3′-5′-adenosine monophosphate (cAMP) agonist forskolin. […] The results are depicted graphically in FIG. 2, wherein the data were stratified according to both the number of observable cysts and their size.
# [4] = system: Pkd1^fl/fl; Pkhd1-Cre mice; assay: Pkd1fl/fl; Pkhd1-Cre mouse model of ADPKD; format: in vivo
# Excerpt: As described in Karihaloo et al. (2011, J Am Soc Nephrol 22: 1809-1814), Pkd1^fl/fl; Pkhd1-Cre mice may be generated by crossing Pkd1fl/fl mice with Pkhd1-Cre mice13 so as to achieve kidney-specific deletion of the Pkd1 allele. See also Shibazaki et al. (2008, Hum Mol Genet 17, 1505-1516) and Patel et al. (2008, Hum Mol Genet 17, 1578-1590). The entire content of each of Karihaloo et al., Shibazaki et al., and Patel et al. is incorporated herein by reference.
# Pkhd-Cre Mice: This is a very robust and reproducible early model of PKD. The Somlo lab has shown that Pkhd-cre expresses and deletes predominantly in collecting tubules Ma et al. (2013, Nature genetics, 45: 1004-1012; the entire content of which is incorporated herein by reference).
# mTor [5] = assay: Recruitment of mTor to lysosome, immunofluorescence with LAMP; format: cell-based, human; settings: ADPKD cells refed with amino acids (QL)
# Excerpt: (A) Schematic depicting mTor activation, which is mediated by the recruitment of mTor to the lysosome. (B) ADPKD cells were stimulated as in FIG. 14 and then subjected to immunofluorescence analysis with antibodies to LAMP (lysosomal associated membrane protein) which stains lysosomes and mTor. Co-localization is shown by a yellow signal following the merging of the green mTor signal and the red LAMP signal. Refeeding with amino acids (QL) led to colocalization or recruitment of mTor to the lysosome as manifested by yellow staining in the merged image (compare −QL with +QL), which was abolished by treatment with BPTES.
# ADPKD cells [6] = assay: Intracellular ATP levels; format: cell-based, human; settings: 24 hours
# Excerpt: α-ketoglutarate also feeds directly into the tricarboxylic acid (TCA) cycle and therefore metabolism of α-ketoglutarate is an important source of ATP from glutamine.
# mTor [7] = assay: mTOR activation by anti-phospho-S6 immunoblot after amino acid refeeding; format: cell-based, human; settings: ADPKD cells refed glutamine and lysine 30 or 60 minutes after 3 hours amino acid deprivation
# Protocol: FIG. 14. […] Cells were then lysed and mTOR activation was assessed by immunoblotting with anti-phospho-S6 antibodies (pS6). To control for loading, the same samples were immunoblotted with antibodies to actin (Actin).
# GLS1 = target: T1, GLS1 (Homo sapiens, UniProt O94925); settings: dimeric vs tetrameric GLS1; cited from earlier work
# T1 sequence (O94925 55-669): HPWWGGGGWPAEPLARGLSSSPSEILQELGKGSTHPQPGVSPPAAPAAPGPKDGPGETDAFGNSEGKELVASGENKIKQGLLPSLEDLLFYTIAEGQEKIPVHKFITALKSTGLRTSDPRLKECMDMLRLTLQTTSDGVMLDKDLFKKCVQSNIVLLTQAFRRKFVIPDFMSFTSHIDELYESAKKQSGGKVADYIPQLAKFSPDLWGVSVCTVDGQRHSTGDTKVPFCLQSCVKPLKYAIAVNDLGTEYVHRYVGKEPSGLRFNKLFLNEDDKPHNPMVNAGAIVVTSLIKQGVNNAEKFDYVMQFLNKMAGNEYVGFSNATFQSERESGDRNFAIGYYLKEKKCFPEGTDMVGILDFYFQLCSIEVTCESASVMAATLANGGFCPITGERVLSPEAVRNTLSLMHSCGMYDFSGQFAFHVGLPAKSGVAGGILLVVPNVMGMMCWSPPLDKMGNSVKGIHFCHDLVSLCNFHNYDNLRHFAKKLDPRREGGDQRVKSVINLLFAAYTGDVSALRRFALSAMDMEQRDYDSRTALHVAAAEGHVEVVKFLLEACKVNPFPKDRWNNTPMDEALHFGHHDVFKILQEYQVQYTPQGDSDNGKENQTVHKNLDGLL
# [8] = cited from earlier work
# ADPKD cells [9] = assay: Forskolin-induced proliferation, MTT assay; format: cell-based, human; settings: co-culture of ADPKD cells with α-ketoglutarate
# Protocol: FIG. 3. […] Proliferation was then quantitated 24 hours later using the MTT assay kit (Promega).
# Elevated intracellular concentration of cAMP is characteristic of ADPKD cells in vivo and mediates activation of signaling pathways that lead to proliferation of ADPKD cells. Gls1 is also critical for proliferation of ADPKD cells.
# ADPKD cells [10] = assay: 8-bromo-cAMP stimulated proliferation, MTT assay; format: cell-based, human; settings: 8-bromo-cAMP + BPTES
# [11] = ADPKD cells in collagen, forskolin, cultured 2 weeks with or without BPTES
# [12] = BPTES 12.5 mg/kg IP QOD, postnatal day 10-24, vs vehicle control
smiles,measurement,setting,value
O=C(Cc1ccccc1)Nc1nnc(CCSCCc2nnc(NC(=O)Cc3ccccc3)s2)s1 [BPTES],cyst growth,[1],statistically significant inhibition of cyst growth
same,basal and forskolin stimulated ATP production,ADPKD cells [2],inhibited
same,basal and forskolin stimulated mitochondrial O2 consumption,ADPKD cells [2],inhibited
same,number of cysts,ADPKD cells [3]; [11],markedly reduces the number of cysts
same,size of cysts,ADPKD cells [3]; [11],profoundly decreases the size of those cysts that are formed
same,cyst volume,[4]; [12],significantly decreased
same,kidney size,[4]; [12],significantly decreased
same,kidney function,[4]; following BPTES administration,some preservation/restoration of kidney function was observed
same,colocalization or recruitment of mTor to the lysosome,mTor [5],abolished
same,intracellular ATP levels,ADPKD cells [6],significant decrease
same,mTor activation (pS6),mTor [7],inhibits mTor activation
"CN(C)c1ccc(C2Nc3ccc4ccccc4c3C3=C2C(=O)CC(C)(C)C3)cc1Br (stereo not shown) [compound 968, 5-(3-bromo-4-(dimethylamino)phenyl)-2,2-dimethyl-2,3,5,6-tetrahydrobenzo[a]phenanthridin-4(1H)-one]",inhibition of GLS1 oligomeric forms,GLS1,only inhibits the nonactivated dimeric GLS1 and not the active tetramer
same,aqueous solubility,[8],poor aqueous solubility
COC(=O)CCC(=O)C(=O)OC [dimethyl α-ketoglutarate],reversal of BPTES inhibition of proliferation,ADPKD cells [9],reversed the inhibition of proliferation by BPTES
same,rescue of cyst formation in siRNA transfected cells,ADPKD cells [3]; dimethyl α-ketoglutarate added to the medium,statistically significant rescue of cyst formation
same,rescue of BPTES inhibition of proliferation,ADPKD cells [10],rescued the inhibition of proliferation
